Tests used:
Type in all cases: cell-based
[1] = target: T1, human prostanoid TP receptor (Homo sapiens, UniProt P21731); experiment: FLIPR Ca2+ signaling antagonist assay, TP receptor stable cell line; details: HEK-293 EBNA stable cell line; standard agonist U-46619; NA = inactive (no antagonism or Kb 10,000 nM); PAg, Ag not defined
T1 construct: expressed in transfected cells
T1 sequence (P21731 1-343): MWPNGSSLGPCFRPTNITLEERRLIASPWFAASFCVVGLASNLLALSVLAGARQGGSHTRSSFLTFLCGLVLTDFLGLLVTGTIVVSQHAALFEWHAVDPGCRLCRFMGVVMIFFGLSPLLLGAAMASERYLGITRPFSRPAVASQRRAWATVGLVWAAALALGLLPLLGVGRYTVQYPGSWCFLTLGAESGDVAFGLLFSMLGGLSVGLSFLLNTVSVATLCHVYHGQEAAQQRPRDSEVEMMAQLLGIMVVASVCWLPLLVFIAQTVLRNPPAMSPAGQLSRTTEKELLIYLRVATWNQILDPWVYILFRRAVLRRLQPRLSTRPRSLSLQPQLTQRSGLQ
Summary of the method: (§1)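 HEK-293 EBNA cells stably expressed the receptor: DP1 with chimeric Gqs, EP3 with Gqi, and EP1 and TP without exogenous G protein. Fluo-4AM-loaded cells were preincubated 4.5 min at 37 °C with antagonist (0.1–30 μM; TP 0.067–1 μM) before agonist serial dilutions. Peak FLIPR fluorescence was normalised to the 10^−6 M agonist control.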

[2] = target: T2, human prostanoid EP4 receptor (Homo sapiens, UniProt P35408); experiment: FLIPR Ca2+ signaling antagonist assay, EP4 receptor stable cell line; details: HEK-293 EBNA stable cell line; standard agonist PGE2; NA = inactive (no antagonism or Kb 10,000 nM); PAg, Ag not defined
T2 construct: expressed in transfected cells
Summary of the method: (§2)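 Peak Fluo-4 fluorescence (ex 470–495, em 515–575 nm) was read for 3.5 min on FLIPR after agonist injection and expressed relative to 10^−6 M standard agonist. Cells were HEK-293 EBNA transfectants. Test compound was added 4.5 min beforehand at 0.1–30 μM, or 0.067–1 μM for TP.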

[3] = target: T3, human prostanoid IP receptor (Homo sapiens, UniProt P43119); experiment: FLIPR Ca2+ signaling antagonist assay, IP receptor stable cell line; details: HEK-293 EBNA stable cell line; standard agonist Cicaprost; NA = inactive (no antagonism or Kb 10,000 nM); PAg, Ag not defined
T3 construct: expressed in transfected cells
Summary of the method: as §2

[4] = target: T4, human prostanoid EP1 receptor (Homo sapiens, UniProt P34995); experiment: FLIPR Ca2+ signaling antagonist assay, EP1 receptor stable cell line; details: HEK-293 EBNA stable cell line; standard agonist PGE2; NA = inactive (no antagonism or Kb 10,000 nM); PAg, Ag not defined
T4 construct: expressed in transfected cells
T4 sequence (P34995 1-402): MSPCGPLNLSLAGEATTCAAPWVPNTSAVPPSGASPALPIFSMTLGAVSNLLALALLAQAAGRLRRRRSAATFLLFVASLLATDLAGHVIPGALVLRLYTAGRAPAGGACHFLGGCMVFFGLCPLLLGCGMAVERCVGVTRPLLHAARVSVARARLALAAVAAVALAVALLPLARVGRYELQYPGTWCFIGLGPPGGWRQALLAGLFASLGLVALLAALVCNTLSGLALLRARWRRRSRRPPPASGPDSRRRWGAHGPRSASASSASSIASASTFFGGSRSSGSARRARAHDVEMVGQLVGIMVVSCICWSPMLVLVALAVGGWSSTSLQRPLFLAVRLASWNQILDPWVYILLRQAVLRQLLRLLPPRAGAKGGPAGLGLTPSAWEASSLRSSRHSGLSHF
Summary of the method: as §1

T3 sequence (P43119 whole entry): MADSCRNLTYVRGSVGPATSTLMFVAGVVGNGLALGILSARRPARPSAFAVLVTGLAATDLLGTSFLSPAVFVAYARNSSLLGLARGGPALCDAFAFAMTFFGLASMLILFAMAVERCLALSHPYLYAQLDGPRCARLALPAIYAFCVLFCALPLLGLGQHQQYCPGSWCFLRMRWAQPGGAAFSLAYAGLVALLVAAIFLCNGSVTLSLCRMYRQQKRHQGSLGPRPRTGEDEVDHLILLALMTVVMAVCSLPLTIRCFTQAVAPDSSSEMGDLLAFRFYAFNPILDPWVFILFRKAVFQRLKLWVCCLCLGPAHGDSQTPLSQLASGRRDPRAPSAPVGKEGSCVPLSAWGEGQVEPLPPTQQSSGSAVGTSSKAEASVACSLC
T2 sequence (P35408 whole entry): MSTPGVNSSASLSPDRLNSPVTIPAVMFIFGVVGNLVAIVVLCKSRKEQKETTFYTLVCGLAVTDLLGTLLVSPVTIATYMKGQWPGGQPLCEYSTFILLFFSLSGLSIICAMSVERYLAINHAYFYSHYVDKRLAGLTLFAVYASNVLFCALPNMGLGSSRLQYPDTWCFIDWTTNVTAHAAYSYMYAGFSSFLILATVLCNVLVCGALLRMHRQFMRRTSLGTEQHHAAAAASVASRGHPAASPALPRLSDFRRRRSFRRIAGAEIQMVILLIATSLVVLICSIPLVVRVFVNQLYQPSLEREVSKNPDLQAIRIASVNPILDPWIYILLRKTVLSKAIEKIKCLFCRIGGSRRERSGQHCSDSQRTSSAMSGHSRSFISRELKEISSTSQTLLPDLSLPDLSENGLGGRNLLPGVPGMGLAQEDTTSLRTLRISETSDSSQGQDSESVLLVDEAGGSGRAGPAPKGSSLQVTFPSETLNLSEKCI

Row | Kb [1] [nM] | Kb [2] [nM] | Kb [3] [nM] | Kb [4] [nM] | TP (FLIPR) Kb [1] | EP1 (FLIPR) Kb [4] | IP (FLIPR) Kb [3] | Compound | EP4 (FLIPR) Kb [2]
1 | 30 | 900 | 1000 | 50 |  |  |  | Cc1cc(CCC(=O)NS(=O)(=O)c2ccccc2)nn1Cc1cc(Cl)ccc1OCc1ccc(Cl)cc1 [Example 24, N-(3-[1-(5-Chloro-2-(4-chlorobenzyloxy)benzyl)-5-methyl-1H-pyrazol-3-yl]-propionyl)benzenesulfonamide] | 
2 |  | 150 | 400 |  | PAg | PAg |  | Cc1cc(CCC(=O)NS(=O)(=O)C(F)(F)F)nn1Cc1cc(Cl)ccc1OCc1ccc(Cl)cc1Cl [Example 27, N-(3-[1-(5-Chloro-2-(2,4-dichlorobenzyloxy)benzyl)-5-methyl-1H-pyrazol-3-yl]-propionyl)C,C,C-trifluoromethanesulfonamide] | 
3 | 2 | 600 | 1600 | 6 |  |  |  | Cc1cc(CCC(=O)O)nn1Cc1cc(Cl)ccc1C#CC1CCCC1 [Example 73, 3-{1-[5-Chloro-2-cyclopentylethynyl-benzyl]-5-methyl-1H-pyrazol-3-yl}-propionic acid] | 
4 | 10 | 1100 | 1800 | 380 |  |  |  | CCCCC(CC)COc1ccc(Br)cc1Cn1nc(CCC(=O)O)cc1C (centres unmarked) [Example 6, 3-[1-(5-Bromo-2-(2-ethyl-hexyloxy)-benzyl)-5-methyl-1H-pyrazol-3-yl]-propionic acid] | 
5 | 8 | 80 | 3100 | 50 |  |  |  | Cc1cc(CC(C)(C)C(=O)O)nn1Cc1cc(Br)ccc1OCC1CCCC1 [Example 71, 3-{1-[5-Bromo-2-(2-cyclopentylmethoxy)-benzyl]-5-methyl-1H-pyrazol-3-yl}-2,2-dimethyl-propionic acid] | 
6 | 40 | 1700 | 720 | 200 |  |  |  | Cc1cc(CCC(=O)O)nn1Cc1cc(Cl)ccc1OCCCC(C)C [Example 40, 3-[1-(5-Chloro-2-(4-methylpentyloxy)benzyl)-5-methyl-1H-pyrazol-3-yl]-propionic acid] | 
7 | 20 | 200 | 1500 | 35 |  |  |  | Cc1cc(CCC(=O)O)nn1Cc1cc(OC(F)(F)F)ccc1OCC1CCCC1 [Example 50, 3-[1-(2-Cyclopentylmethoxy-5-trifluoromethoxy-benzyl)-5-methyl-1H-pyrazol-3-yl]-propionic acid] | 
8 | 10 | 1000 | 8800 | 30 |  |  |  | Cc1cc(CCC(=O)O)nn1Cc1cc(Br)ccc1OCC1(C(F)(F)F)CCC1 [Example 13, 3-[1-(5-Bromo-2-(1-trifluoromethylcyclobutylmethoxy)-benzyl)-5-methyl-1H-pyrazol-3-yl]-propionic acid] | 
9 |  | 7000 |  | 15 | Ag |  | PAg | Cc1cc(CCC(=O)O)nn1Cc1cc(OC(F)(F)F)ccc1OCc1ccc(Cl)cc1 [Example 51, 3-[1-[2-(4-Chloro-benzyloxy)-5-trifluoromethoxy-benzyl]-5-methyl-1H-pyrazol-3-yl]-propionic acid] | 
10 | 20 | 500 | 3700 | 100 |  |  |  | Cc1cc(CCC(=O)O)nn1Cc1cc(Cl)ccc1OCC(C)(C)C [Example 35, 3-[1-(5-Chloro-2-(2,2-dimethylropoxy)benzyl)-5-methyl-1H-pyrazol-3-yl]-propionic acid] | 
11 |  | 8400 | 1000 | 3 | PAg |  |  | Cc1cc(CCC(=O)O)nn1Cc1cc(Cl)ccc1OCc1ccc(Cl)cc1Cl [Example 26, 3-[1-(5-Chloro-2-(2,4-dichlorobenzyloxy)benzyl)-5-methyl-1H-pyrazol-3-yl]-propionic acid] | 
12 | 2 | 80 | 800 | 6 |  |  |  | Cc1cc(CCC(=O)NS(=O)(=O)C(F)(F)F)nn1Cc1cc(Cl)ccc1OCC1CCCC1 [Example 43, N-(3-[1-(5-Chloro-2-cyclopentylmethoxybenzyl)-5-methyl-1H-pyrazol-3-yl]-propionyl)C,C,C-trifluoromethanesulfon amide] | 
13 |  | 1500 |  | 5 | PAg |  | PAg | Cc1cc(CCC(=O)O)nn1Cc1cc(C(F)(F)F)ccc1OCc1ccc(Cl)cc1 [Example 52, 3-[1-[2-(4-Chloro-benzyloxy)-5-trifluoromethyl-benzyl]-5-methyl-1H-pyrazol-3-yl]-propionic acid] | 
14 | < 1 |  | 7900 | 6 |  |  |  | Cc1cc(CCC(=O)NS(=O)(=O)CC(F)(F)F)nn1Cc1cc(Cl)ccc1OCc1ccc(Cl)cc1 [Example 25, 2,2,2-trifluoroethanesulfonic acid-(3-[1-(5-Chloro-2-(4-chlorobenzyloxy)benzyl)-5-methyl-1H-pyrazol-3-yl]-propionyl)amide] | Ag
15 | 1 | 400 | 1700 | 40 |  |  |  | CCCC(C)COc1ccc(Br)cc1Cn1nc(CCC(=O)O)cc1C (centres unmarked) [Example 8, 3-[1-(5-Bromo-2-(2-methyl-pentyloxy)-benzyl)-5-methyl-1H-pyrazol-3-yl]-propionic acid] | 
16 | 12 | 1000 | 1900 | 60 |  |  |  | Cc1cc(CCC(=O)NS(=O)(=O)C(F)(F)F)nn1Cc1cc(Cl)ccc1CCC1CCCC1 [Example 75] | 

Row | Compound | Kb [1] [nM] | Kb [2] [nM] | Kb [3] [nM] | Kb [4] [nM] | TP (FLIPR) Kb [1] | EP1 (FLIPR) Kb [4] | IP (FLIPR) Kb [3] | EP4 (FLIPR) Kb [2]
17 | CCC(CC)COc1ccc(Br)cc1Cn1nc(CCC(=O)O)cc1C(C)C [Example 55, 3-{1-[5-Bromo-2-(2-ethyl-butoxy)-benzyl]-5-isopropyl-1H-pyrazol-3-yl}-propionic acid] | 250 | 80 | 1100 | 60 |  |  |  | 
18 | CCC(CC)COc1ccc(Br)cc1Cn1nc(CCC(=O)O)cc1C(F)(F)F [Example 58, 3-{1-[5-Bromo-2-(2-ethyl-butoxy)-benzyl]-5-trifluororomethyl-1H-pyrazol-3-yl}-propionic acid] | 150 |  |  | 370 |  |  | PAg | PAg
19 | CCCc1cc(CCC(=O)O)nn1Cc1cc(Br)ccc1OCC(CC)CC [Example 56, 3-{1-[5-Bromo-2-(2-ethyl-butoxy)-benzyl]-5-propyl-1H-pyrazol-3-yl}-propionic acid] | 70 | 3 | 1300 | 60 |  |  |  | 
20 | CCC(CC)COc1ccc(Br)cc1Cn1nc(CCC(=O)O)cc1C(C)(C)C [Example 57, 3-{1-[5-Bromo-2-(2-ethyl-butoxy)-benzyl]-5-tert-butyl-1H-pyrazol-3-yl}-propionic acid] | 500 | 700 | 800 | 150 |  |  |  | 
21 | CCC(CC)COc1ccc(Cl)cc1Cn1nc(CC(C)C(=O)O)cc1C (racemic) [Example 68, 3-{1-[5-Chloro-2-(2-ethyl-butoxy)-benzyl]-5-methyl-1H-pyrazol-3-yl}-2-methyl-propionic acid] | 16 | 130 | 5700 | 70 |  |  |  | 
22 | CCC(CC)COc1ccc(Br)cc1Cn1nc(CCC(=O)NS(=O)(=O)C(F)(F)F)cc1C [Example 17, N-(3-{1-[5-Bromo-2-(2-ethyl-butoxy)-benzyl]-5-methyl-1H-pyrazol-3-yl}-propionyl)-C,C,C-trifluoro-methanesulfonamide] | < 1 | 35 | 2700 | 15 |  |  |  | 
23 | Cc1cc(CCC(=O)NS(=O)(=O)C(F)(F)F)nn1Cc1cc(Br)ccc1OCC(C)C [Example 19, N-(3-{1-[5-Bromo-2-isobutoxybenzyl]-5-methyl-1H-pyrazol-3-yl}-propionyl)-C,C,C-trifluoro-methanesulfonamide] | 1 | 30 | 1400 | 14 |  |  |  | 

Source: US9394284B2, “Compounds act at multiple prostaglandin receptors giving a general anti-inflammatory response” (Allergan, Inc., priority 2010, dated 2016)
